Laboratory results from a melting point compilation (Tetko et al.; mined from patent text by program, amines drawn as free bases though some values may be those of a salt).

`CCOC(=O)C=N[C@@H]1c2cc(C#N)ccc2OC(C)(C)[C@H]1O` (relative stereo) gave a melting point of 98 to 100 °C.
With `CC(C)Oc1ccc(-c2nc(O)c(C(=O)O)s2)cc1` the melting point was 126 to 127 °C.
With `CCCCCCCN(CCCCCS(=O)c1nc(-c2ccccc2)c(-c2ccccc2)[nH]1)C(=O)Nc1ccc(F)cc1F` (stereo not drawn) the melting point was 77 to 79 °C.
In the case of `CNS(=O)(=O)c1ccccc1Nc1nc(Nc2ccc3c(c2)COC[C@@H]2CCCN32)ncc1Cl`, the melting point was 187 to 188 °C.
Compound `CCC(CC(=O)NC(=O)OC(C)(C)C)Nc1ccc(OC)cc1` (stereo not drawn) has a melting point of 65 to 66 °C.
With `CSc1ccc(F)cc1C(=O)Cn1cccc1` the melting point was 133 to 134 °C.
Work on `Cc1oc(-c2ccco2)nc1COc1ccc(Cc2nc(-c3ccccc3)c(CCC(=O)O)o2)cc1` yielded a melting point of 74 to 76 °C.
For `CCCCc1nn(-c2cc(NC(C)=O)ccc2Cl)c(=O)n1Cc1ccc(-c2cc(CCC)ccc2S(=O)(=O)NC(=O)OC(C)(C)C)cc1F`, the melting point was < 130 °C.
Compound `CCNc1nc(CC)c(-c2ccncc2)s1` has a melting point of 126 to 128 °C.
With `COc1ccc2cccc(C(=O)CNC(C)=O)c2c1` the melting point was 122 to 124 °C.
Compound `O=C1N(Cc2ncccc2C(F)(F)F)c2ccccc2C12COc1ccc3c(c12)OCCO3` (stereo not drawn) has a melting point of 245 to 247 °C.
For `C=CCOc1ccccc1C1C=NNC(=O)C1` (stereo not drawn), the melting point was 93 to 95 °C.
`[N-]=[N+]=C1CCc2ccccc2C1=O` gave a melting point of 50 to 52 °C.
For `CC(=O)Nc1nnnn1CC(I)=C(I)I`, the melting point was 178 to 185 °C.
In the case of `CC(=O)c1cc(C)c(OCC(=O)O)c(C)c1`, the melting point was 166 to 167 °C.
Compound `Cn1nc(-c2nc(OCC(N)=O)c(Cl)cc2F)c(Cl)c1OC(F)F` has a melting point of 178 to 180 °C.
`C=Cc1ccc(CC(=O)O)cc1` showed a melting point of 94 °C.
Work on `COc1cc2c(Cl)c(C#N)cnc2c(OC)c1OC` yielded a melting point of 161 to 163 °C.
Work on `Nc1ccc2c(c1)C(CN1CCCCC1)CO2` (stereo not drawn) yielded a melting point of 144 to 150 °C.
Work on `CCCCC(=O)N[C@H]1CC[C@H](CCN2CCN(c3nccc4c3CCO4)CC2)CC1` yielded a melting point of 180 °C.
With `Cc1c(C)c(N2Cc3ccccc3C2)c(C)c2c1OC(C)(C)C2c1ccccc1` (stereo not drawn) the melting point was 164 to 166 °C.
Work on `C=CCCCCCCOc1ccc(C(CC(C(=O)OCC)C(=O)OCC)NC(C)=O)cc1` (stereo not drawn) yielded a melting point of 50 to 53 °C.
Work on `CCn1cc(C2CCC(=O)CC2)c2cc(C#N)ccc21` yielded a melting point of 124 °C.
Compound `COc1ccccc1Oc1c(NS(=O)(=O)c2ccc(C)cn2)nc(-c2cccc(O)c2)nc1OC` has a melting point of 211 to 216 °C.
For `Cc1ccccc1NC(=O)N(C)C`, the melting point was 139 to 143 °C.
`CCOC(=O)c1c(CBr)cccc1S(N)(=O)=O` showed a melting point of 138 to 140 °C.
In the case of `CCOC(=O)c1ncn2c1c(Cl)nc1ccccc12`, the melting point was 128 to 130 °C.
Work on `NC(=NO)C1CCN(c2ccc3c(NC(=O)CC4CCCCC4)c(Cl)ccc3n2)CC1` yielded a melting point of 246 to 247 °C.
With `CS(=O)(=O)Nc1cccc(-c2cccc(-c3nc(-c4ccc(C(F)(F)F)cc4)cc(C(F)(F)F)n3)c2)c1` the melting point was 191 °C.
Compound `CC(C)(F)C1COCc2nc3c(N)nc4cc(O)ccc4c3n21` (stereo not drawn) has a melting point of 219 to 221 °C.
With `CCC(Cl)CCC(=O)c1cc(OC)c(OC)cc1F` (stereo not drawn) the melting point was 81 to 82 °C.
`C#Cc1cc(C(=O)NC(C)CCCc2cccnc2)ccc1-c1ccc(OC)c(OC)c1` (stereo not drawn) gave a melting point of 135 to 137 °C.
With `O=C1CCC2=C(c3ccccc3)c3cc(Cl)ccc3C2N1` (stereo not drawn) the melting point was 234 to 238 °C.
In the case of `NS(=O)(=O)c1cc(C(=O)OCC(=O)N2CCC(CCO[N+](=O)[O-])CC2)c(NCc2ccco2)cc1Cl`, the melting point was 170 °C.
`CC(C)(OCc1nn(C(c2ccccc2)(c2ccccc2)c2ccccc2)c2ccccc12)C(=O)O` showed a melting point of 179 to 180 °C.
Compound `CSC(=S)NN=Cc1c[nH]c(-c2ccccc2)n1` has a melting point of 166 to 170 °C.
`Nc1ncnc2c1c(-c1ccc(NS(=O)(=O)c3ccccc3)c(O)c1)cn2C1CCCC1` showed a melting point of 265 to 267 °C.
Compound `CCCC(=O)c1ccc(N2CCOCC2)cc1` has a melting point of 64.5 to 65.5 °C.
Compound `CC(=O)c1cccc2c1C1(COc3cc4c(cc31)OCCO4)C(=O)N2C` (stereo not drawn) has a melting point of 234 to 235 °C.
`CC12CCC3c4ccc(C(=O)O)cc4CCC3C1CCC2C(=O)CCc1ccc(F)cc1` (stereo not drawn) gave a melting point of 224 to 227 °C.
In the case of `CCOC(=O)C(=O)Nc1c(Cl)cc(Cl)c(Cl)c1O`, the melting point was 178 °C.
Work on `CC1(N)CN(c2c(F)cc3c(=O)c(C(=O)O)cn(-c4ccc(F)cc4)c3c2F)C1` yielded a melting point of 272 to 277 °C.
With `Cc1ccc(NC(=O)c2ccc(C(=O)Nc3ccccc3N)s2)cc1Nc1nccc(-c2cccnc2)n1` the melting point was 280 °C.
With `CCc1cc(C(=O)c2ccccc2Cl)c(-n2c(CC)nnc2CNC(=O)c2ccc(Cl)c(Cl)c2)s1` the melting point was 136 to 138 °C.
With `CCCCCCCCCCCCCCCCCCOP(=O)(Cc1c(C)cc(C(C)(C)C)c(O)c1C)OCCCCCCCCCCCCCCCCCC` the melting point was 70 to 72 °C.
For `NS(=O)(=O)c1cncc(-c2cn(-c3cc(C(F)(F)F)cc(-c4ccc(C(F)(F)F)cc4)n3)cn2)c1`, the melting point was > 250 °C.
`CN(CCCCCNC(=NCCSCc1csc(NC(=N)N)n1)NC#N)CCN(Cc1ccc(F)cc1)c1ccccn1` showed a melting point of 103 °C.
In the case of `COC(=O)c1ccc(C(=O)Nc2ccc3c(c2)C(C)(C)CCC3(C)C)cc1`, the melting point was 211 °C.
`O=C(O)CCC(=O)c1ccc(-c2ccccc2F)cc1` gave a melting point of 148 to 153 °C.
For `N#C/C=C/c1cn(-c2c(Cl)cc(C(F)(F)F)cc2Cl)nc1C#N`, the melting point was 144 to 145 °C.
`CC(=O)OC(c1nc2c(C(F)(F)F)cccc2c(O)c1C(=O)Nc1ccccn1)C(C)C` (stereo not drawn) gave a melting point of 230 °C.
`COc1ccc(-c2ccc(-c3ccc(F)cc3)nc2-c2ccc(OCc3ccccc3)cc2)cc1` showed a melting point of 114 to 115 °C.
With `O=C(NCC#CCN1CCCC1)N1c2ccccc2-c2noc3c2C1CCC3` (stereo not drawn) the melting point was 132 °C.
With `CC(F)=C1CCC2C3CC=C4CC(O)CCC4(C)C3CCC12C` (stereo not drawn) the melting point was 129 to 133 °C.
`CC(=O)Nc1nc(CS(=O)(=O)c2ccc(N)cc2)cs1` showed a melting point of 135 to 137 °C.
In the case of `CC(C)(C)N(Cc1ccccc1)CC(O)c1cc(OCc2ccccc2)cc(OCc2ccccc2)c1` (stereo not drawn), the melting point was 78 to 79 °C.
In the case of `CCCCCCCCCCCCC/C=C1\C(=O)OCC1(CO)COC(C)=O` (stereo not drawn), the melting point was 48 °C.
`N#Cc1ccc(C(=O)N2CCC[C@H]2C(=O)O)cc1` gave a melting point of 80 to 85 °C.
In the case of `O=C(O)c1cc(SCCO)ccc1O`, the melting point was 136 °C.
Work on `CCN(C(=O)C(C)O)c1cn(-c2cccnc2)nc1Cl` (stereo not drawn) yielded a melting point of 137 to 138 °C.
In the case of `CC(C)(C)Cc1c(CC(C)(C)C(=O)O)n(Cc2ccc(Cl)cc2)c2ccc(OCc3ccc4sccc4n3)cc12`, the melting point was 187 to 188 °C.
For `O=C(O)CC(Sc1ccc(Cl)cc1)c1ccccc1` (stereo not drawn), the melting point was 90 to 92 °C.
`CCCc1c(C(=O)C(C)C)c2ccc(CC(=O)OC)cc2n1Cc1cc2c(cc1Cl)OCO2` gave a melting point of 119 to 120 °C.
Compound `O=C(CN(CCOCc1ccccc1)Cc1ccccc1)Nc1ccc2c3c(nn2CCN(CCOCc2ccccc2)Cc2ccccc2)-c2cc(O)ccc2Oc13` has a melting point of 106 to 110 °C.
With `CCCCCCC(Cc1ccc(OCCN2CCCCCC2)cc1)(C(=O)NO)S(=O)(=O)c1ccc(OC)cc1` (stereo not drawn) the melting point was 65 °C.
`O=C(Cc1ccccc1)Nc1ccc(-n2nc(C3CC3)cc2C2CC2)cc1` showed a melting point of 133 to 138 °C.
In the case of `N#CCCNC(=O)c1n[nH]cc1NC(=O)c1cccc(C(F)(F)F)c1`, the melting point was 188 to 190 °C.
`CS(=O)(=O)c1ccc(C(Cc2ccc(F)cc2)C(=O)Nc2cncc(Cl)n2)cc1` (stereo not drawn) gave a melting point of 192 to 193 °C.
`O=c1[nH]c2ccc(C(F)(F)F)cc2c(-c2cc(Cl)ccc2O)c1Sc1ccc(O)cc1` gave a melting point of 180 to 190 °C.
Work on `CC(C)(C)C(=O)N[Si](C)(C)C` yielded a melting point of 101 to 106 °C.
Work on `Cc1cccc(C=Cc2c(C(C)C)nc(C(C)C)c(CO)c2-c2ccc(F)cc2)c1` yielded a melting point of 97 to 99 °C.
With `CCOC(=O)Cc1cc2ccc(O)cc2oc1=O` the melting point was 168 to 170 °C.
`CC(=O)NN1CCC(c2ccc(-c3cccc(N)n3)cc2)CC1` gave a melting point of 224 to 227 °C.
For `Cc1cc(C(N)=O)cc([N+](=O)[O-])n1`, the melting point was 227 to 228 °C.
Compound `FC(F)(F)c1cc(C(F)(F)F)n(-c2ccc(Nc3noc4ccccc34)cc2)n1` has a melting point of 209 to 210 °C.
Compound `CC1=NCN(c2csc(Br)c2)O1` has a melting point of 72 to 73 °C.
`CSc1ncncc1C(O)c1ccccc1F` (stereo not drawn) showed a melting point of 176 to 177 °C.
In the case of `CCCCCCCCCCCCNC(=O)COc1ccc(O)cc1[N+](=O)[O-]`, the melting point was 150 to 151 °C.
Compound `CCc1cc(C(C)(C)c2ccc(C(C)(C)c3cc(CC)c(NC)c(CC)c3)cc2)cc(CC)c1NC` has a melting point of 105 to 108 °C.
`Brc1ccccc1C1=NOC2(N3CCCC3)CCCCC12` (stereo not drawn) showed a melting point of 134 °C.
Work on `O=C(Nc1ccccc1)c1cccc([N+](=O)[O-])c1` yielded a melting point of 153 to 154 °C.
Compound `CCCCC(=O)Nc1cccc(NC(=O)CC(C)=O)c1` has a melting point of 90 °C.
With `CC(=O)OC1CCC2(C)C(CCC3C4CCC(C(C)=O)C4(C)CC(O)C32Cl)C1` (stereo not drawn) the melting point was 175 to 179 °C.
In the case of `CC(=O)c1cc(OCc2ccccc2)cc2c1OC(C)(C)C(=O)N2`, the melting point was 148 to 150 °C.
Work on `CON1CCC(C2NC(=O)C(c3c(C)cc(C)cc3C)=C2O)CC1` (stereo not drawn) yielded a melting point of 206 to 209 °C.
`Fc1ccc(-c2nc(-c3ccccc3)cn2-c2ccncc2)cc1` showed a melting point of 90 to 92 °C.
`CC(O)c1ccc(C2(C(C)(C)C)OCCO2)cc1` (stereo not drawn) showed a melting point of 67 to 70 °C.
With `CC(C)c1nnc(-c2ccc(-c3ccccc3)cc2)n1-c1ccccc1F` the melting point was 201 to 204 °C.
In the case of `CCCCCCCCCCCCn1nnnc1CCC(=O)Nc1c(OC)cc(OC)cc1OC`, the melting point was 57 to 61 °C.
For `CC(C)(C)OC(=O)N(CC=CCl)c1cc(OCc2ccccc2)c2ncccc2c1I`, the melting point was 115 to 135 °C.
For `CCOC(=O)C(=O)Nc1cccc(N)c1C#N`, the melting point was 133 to 136 °C.
`NC(=O)c1cc2cc(F)c(F)cc2o1` showed a melting point of 217 °C.
In the case of `CSc1ccc(Oc2ccc([N+](=O)[O-])cc2C#N)cc1`, the melting point was 124 to 126 °C.
For `NC1=NS(=O)(=O)c2cccc(Cl)c21`, the melting point was 218 °C.
With `C[C@H]1CCCN(C(=O)[C@@H]2Cc3ccccc3N2c2ccc3nncn3n2)C1` the melting point was > 300 °C.
`Cc1ccc2c(c1)C1=NN(c3ccc(OCCCN4CCCCC4)cc3)C(=O)CC1CC2` (stereo not drawn) gave a melting point of 171 to 172 °C.
Compound `Cc1oc(-c2ccc3ccccc3c2)nc1/C=C/c1ccc(CO)cc1` has a melting point of 173 to 174 °C.
`O=C(O)COc1cc2c(c(Cl)c1Cl)C(=O)CCC2` showed a melting point of 250 to 252 °C.
